Here are results for two molecules from US20120231482A1, “METHOD, KIT OR DIAGNOSTIC FOR THE DETECTION OF REAGENTS WHICH INDUCE ALTERED CONTRACTILITY” (THE JOHNS HOPKINS UNIVERSITY, priority 2009, published 2012).

One assay deals with intact trabeculae. The assay can be described thus: Steady-state force-[Ca2+]i relationship in intact trabeculae (tetanized with ryanodine). In kind it is cell-based, rat. Details: [Ca2+]i required for 50% of activation (Ca50): unit not given here.
In the next assay the target is T1, actin (Rattus norvegicus, UniProt P68035).
T1 construct: Rat myofibrillar preparations, as described in [7], were obtained from frozen ventricles (Pel Freez Biologicals); tissue Pel Freez Biologicals; host or cells: myofibrils from frozen rat ventricles
The assay can be described thus: Gel shift assay, reducing/non-reducing western blot of cardiac myofibrils. Type of assay: biochemical. As to conditions: for actin higher molecular weight forms: non-reducing, lost with 5 mM DTT. On the procedure:
FIG. 4. Validation and characterizations of HNO modifications. 1 μg of rat cardiac myofibrils treated with HNO donors or control compounds were separated under reducing or nonreducing conditions and western blots probed for candidate proteins tropomyosin, actin, myosin heavy chain, myosin light chain 1 (n=4). […] Silver stained gel analysis indicated a protein band with […] gel mobility that was lost with DTT.
FIG. 5. Evaluation of the interaction between actin and tropomyosin with NCA treatment. Purified rabbit skeletal tropomyosin (0.03 μg) and isolated rat cardiac myofibrils (1 μg) were treated with NCA or AS and evaluated by 1D non-reducing western blot probing for tropomyosin (A) and actin (B) (n=3). […] (C) Fluorescent DIGE analysis of samples from A and B independent labeled indicates NCA specific band (green) above purified TM (blue) and below AS treated myofibrils (red) (n=3). (D) MS analysis of the same gel region identified both tropomyosin and actin in non-reduced lane but not with DTT treatment (n=2).
Gel shift assay. 10 μg of rat myofibrils/treatment were diluted to 0.5 μg/μl in HEN including 0.1% (w/v) SDS and exposed to a treatment for 20 min at 37° C. Samples were diluted to 0.1 ug/ul in 1×LSD sample buffer, treated with 0, 5 or 100 mM DTT and separated by SDS PAGE. Proteins were silver stained or transferred to nitrocellulose and immunoblotted with primary antibodies for tropomyosin sarcomeric (CH1, Sigma-Aldrich Co., St. Louis, Mo., USA), actin (AC-40, Sigma-Aldrich Co., St. Louis, Mo., USA), myosin light chain 1 (MLM527, Abcam, Cambridge, Mass., USA) or myosin heavy chain (3-48, Abcam, Cambridge, Mass., USA). For some silver stained gel bands of interest in-gel digestion was done following the protocol outlined in Shevchenko et al.. Gel slices of interest were excised from the gels cut into 1 mm^3 pieces. Silver stained gel pieces were destained in 1:1(v/v) 30 mM Potassium ferricyanide and 100 mM Sodium thiosulfate and wash three times with ddH2O. Gel pieces were dehydrated in 100% acetonitrile and reswelled in 10 mM DTT and incubated at 55° C. for 1 hour. After the DTT solution was removed, a solution of 55 mM iodoacetimide was added and gel slices were incubated at room temperature protected from light. Gel slices were then washed 3 times with 50% (v/v) ACN, 25 mM (NH4)HCO3 and then fully dehydrated in 100% ACN and dried in a speed vac. Gel pieces were reswelled in a 12.5 ng/μL trypsin (Promega, Madison Wis. USA) solution containing 25 mM (NH4)HCO3 and incubated at 37° C. for >16 hours. Digested peptides were extracted by addition of 5% (v/v) formic acid and incubation for 15 min followed by addition of an equal volume of 100% ACN and 15 min incubation, this step was repeated and the extracts were combined. […]
In general terms: In EMSA bound probe runs differently from free probe, usually more slowly.

Where [1] appears, read: AS applied to isolated trebecula or skinned muscle preparations.

Regarding `[Na+].[Na+].[O-][N+]([O-])=NO` [AS, Angeli's Salt], in the assay with intact trabeculae (setting [1]), the Ca50 entry is given as “without altering”, the Hill coefficient result is reported as “without altering” and the “maximum force of contraction” value is given as “increase”. Moreover, the “actin higher molecular weight forms” value at actin is listed as “approximately 80 kDa”.

As for `CC(=O)OC1(N=O)CCCCC1` [NCA, 1-nitrosocyclohexylacetate], in the assay on intact trabeculae (NCA 20 μmol/L, intact muscles), the Hill was 4.92±0.84, the “[Ca2+]i required for 50% of activation (Ca50)” value turned out to be 0.42±0.01 and the “maximal Ca2+-activated force (Fmax)” value is recorded as 123±18 mN/mm^2. Also, at actin, the “actin higher molecular weight forms” value is “approximately 80 kDa”. The “antibody epitope binding of monomeric actin” value on actin (western blot) is “loss of antibody epitope binding”.
